The source made the active and inactive calls. No cut-off for these calls is given here.
Assays:
M14 [1] = experiment: Cytotoxicity against human M14 cells measured after 72 hrs […]; type: functional, cell-based; details: M14, 72 h
[2] = Systemic toxicity in human A375/TxR cells xenografted in SCID mouse tumor model assessed as pathological change in lungs at 10 to 20 mg/kg, ip by H and E staining based analysis; type: organism-based; details: in vivo, dose 10-20 mg/kg
CYP2D6 = CYP2D6 (Homo sapiens, UniProt P10635); experiment: Inhibition of CYP2D6 in human liver microsomes using dextromethorphan as substrate at 10 uM; type: ADME; details: probe dextromethorphan
CYP2D6, sequence (P10635 whole entry): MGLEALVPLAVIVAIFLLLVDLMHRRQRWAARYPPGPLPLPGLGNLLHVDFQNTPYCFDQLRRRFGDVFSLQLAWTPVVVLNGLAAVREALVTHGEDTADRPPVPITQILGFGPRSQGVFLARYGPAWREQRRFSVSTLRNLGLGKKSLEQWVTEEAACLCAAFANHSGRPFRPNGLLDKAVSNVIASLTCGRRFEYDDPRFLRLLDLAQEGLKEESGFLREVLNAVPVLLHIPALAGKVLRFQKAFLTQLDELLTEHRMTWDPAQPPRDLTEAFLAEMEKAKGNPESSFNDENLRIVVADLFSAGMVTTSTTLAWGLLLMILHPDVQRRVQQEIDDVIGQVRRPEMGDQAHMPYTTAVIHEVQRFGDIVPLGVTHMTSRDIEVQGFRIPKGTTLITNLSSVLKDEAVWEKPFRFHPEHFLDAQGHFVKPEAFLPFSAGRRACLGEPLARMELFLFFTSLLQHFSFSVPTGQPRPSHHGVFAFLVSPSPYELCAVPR

Salmonella typhimurium [3] = experiment: Mutagenicity in Salmonella typhimurium TA1535 by Ames test; type: toxicity, organism-based; details: salmonella enterica subsp. enterica serovar typhimurium
CYP2B6 = target: T1, CYP2B6 (Homo sapiens, UniProt P20813); experiment: Inhibition of CYP2B6 in human liver microsomes using bupropion as substrate at 10 uM; type: ADME; details: probe bupropion
T1 sequence (P20813 whole entry): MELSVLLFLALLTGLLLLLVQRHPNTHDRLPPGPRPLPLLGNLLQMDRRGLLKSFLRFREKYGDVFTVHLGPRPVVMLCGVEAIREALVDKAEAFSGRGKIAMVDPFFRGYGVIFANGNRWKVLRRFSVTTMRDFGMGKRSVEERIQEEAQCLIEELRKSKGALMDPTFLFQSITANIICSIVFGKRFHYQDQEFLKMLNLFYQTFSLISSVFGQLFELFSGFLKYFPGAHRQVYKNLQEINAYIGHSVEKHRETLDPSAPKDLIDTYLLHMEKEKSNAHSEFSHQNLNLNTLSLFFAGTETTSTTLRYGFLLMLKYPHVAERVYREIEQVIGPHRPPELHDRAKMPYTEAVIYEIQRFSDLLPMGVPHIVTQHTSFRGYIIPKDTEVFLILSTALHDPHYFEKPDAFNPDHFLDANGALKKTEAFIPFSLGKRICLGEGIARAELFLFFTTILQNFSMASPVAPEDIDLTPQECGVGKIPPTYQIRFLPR

A375/TxR [4] = experiment: Antitumor activity against human A375/TxR cells xenografted in SCID mouse assessed as tumor necrosis at 10 to 20 mg/kg, ip by H and E staining based analysis; type: functional, organism-based; details: dose 10-20 mg/kg
[5] = Induction of cell cycle arrest in human A375/TxR cells assessed as accumulation at G2/M phase at 10 nM measured for 24 hrs by PI staining based flow cytometry analysis
[6] = Metabolic stability in human liver microsomes assessed as intrinsic clearance in presence of NADPH regenerating system by UPLC-MS analysis; type: ADME, Microsome; details: read-out: CLH
[7] = AUClast in NSG mouse at 10 mg/kg, ip; type: ADME, organism-based; parameters: time 0 - last, route intraperitoneal, dose 10 mg/kg; details: in vivo
CYP3A [8] = experiment: Inhibition of CYP3A in human liver microsomes using testosterone as substrate at 10 uM; type: ADME; details: probe testosterone
[9] = Apparent volume of distribution during terminal phase in NSG mouse at 10 mg/kg, ip; type: ADME, organism-based; details: in vivo, read-out: Vz/F
[10] = Systemic toxicity in human A375/TxR cells xenografted in SCID mouse tumor model assessed as pathological change in kidney at 10 to 20 mg/kg, ip by H and E staining based analysis; type: organism-based; details: in vivo, dose 10-20 mg/kg
[11] = Half life in NSG mouse at 10 mg/kg, ip; type: ADME, organism-based; details: in vivo
MDA-MB-231 [12] = experiment: Antiproliferative activity against human MDA-MB-231 cells assessed as cell growth inhibition incubated for 72 hrs by MTS assay; type: functional, cell-based; details: MDA-MB-231, 72 h
[13] = Systemic toxicity in human A375/TxR cells xenografted in SCID mouse tumor model assessed as pathological change in heart at 10 to 20 mg/kg, ip by H and E staining based analysis; type: organism-based; details: in vivo, dose 10-20 mg/kg
[14] = Cmax in NSG mouse at 10 mg/kg, ip; type: ADME, organism-based; parameters: route intraperitoneal, dose 10 mg/kg; details: in vivo
[15] = Cytotoxicity against paclitaxel resistant human A-375/TxR cells measured after 72 hrs […]; type: functional, cell-based; details: A375/TxR
[16] = Antitumor activity against human A375/TxR cells xenografted in SCID mouse assessed as tumor growth inhibition at 10 mg/kg, ip administered 3 times/week for 18 days; type: functional; parameters: scale not given: the % may be the effect or the level left; details: time 18 day
A375/TxR [17] = experiment: Antimetastatic activity against human A375/TxR cells xenografted in SCID mouse assessed as metastatic in lungs; type: functional
RPMI-7951 = experiment: Antiproliferative activity against human RPMI-7951 cells assessed as cell growth inhibition incubated for 72 hrs by MTS assay; type: functional, cell-based; details: RPMI-7951, 72 h
[18] = Antitumor activity against human A375/TxR cells xenografted in SCID mouse assessed as reduction in tumor volume at 10 mg/kg, ip administered 3 times/week for 18 days; type: functional; parameters: scale not given: the % may be the effect or the level left; details: time 18 day
[19] = Antitumor activity against human A375/TxR cells xenografted in SCID mouse assessed as reduction in tumor volume at 20 mg/kg, ip administered 3 times/week for 18 days; type: functional; parameters: scale not given: the % may be the effect or the level left; details: time 18 day
[20] = Metabolic stability in mouse liver microsomes assessed as intrinsic clearance in presence of NADPH regenerating system by UPLC-MS analysis; type: ADME, Microsome; details: read-out: CLH
Salmonella typhimurium [21] = experiment: Mutagenicity in Salmonella typhimurium TA1537 by Ames test; type: toxicity, organism-based; details: salmonella enterica subsp. enterica serovar typhimurium
Sus scrofa = species on record: Sus scrofa; experiment: Inhibition of porcine brain tubulin polymerization assessed as inhibition of microtubule polymerization at 10 uM measured for 1 hrs by microplate reader method
CYP2C9 = CYP2C9 (Homo sapiens, UniProt P11712); experiment: Inhibition of CYP2C9 in human liver microsomes using diclofenac as substrate at 10 uM; type: ADME; details: probe diclofenac
CYP2C9, sequence (P11712 whole entry): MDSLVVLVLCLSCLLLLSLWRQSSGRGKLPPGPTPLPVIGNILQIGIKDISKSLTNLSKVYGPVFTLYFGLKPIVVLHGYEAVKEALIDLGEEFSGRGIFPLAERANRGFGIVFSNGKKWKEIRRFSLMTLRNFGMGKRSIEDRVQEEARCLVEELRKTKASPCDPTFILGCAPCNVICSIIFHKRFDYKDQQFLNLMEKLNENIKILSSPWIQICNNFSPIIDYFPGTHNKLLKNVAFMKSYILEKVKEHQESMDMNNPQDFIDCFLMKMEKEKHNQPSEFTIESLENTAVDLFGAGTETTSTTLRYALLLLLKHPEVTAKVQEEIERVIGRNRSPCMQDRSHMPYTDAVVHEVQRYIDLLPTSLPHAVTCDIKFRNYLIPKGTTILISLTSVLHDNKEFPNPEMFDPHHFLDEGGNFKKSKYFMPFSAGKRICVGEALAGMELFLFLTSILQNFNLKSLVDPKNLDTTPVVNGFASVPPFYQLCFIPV

M14 [22] = experiment: Antiproliferative activity against human M14 cells assessed as cell growth inhibition incubated for 72 hrs by MTS assay; type: functional, cell-based; details: M14, 72 h
[23] = Tmax in NSG mouse at 10 mg/kg, ip; type: ADME, organism-based; details: in vivo
[24] = Anticlonogenic activity against paclitaxel resistant human A-375 cells assessed as inhibition of colony formation at 5 nM treated for 7 days by crystal violet staining based microscopic analysis; type: functional, A375/TxR; parameters: scale not given: the % may be the effect or the level left; details: time 7 day
MDA-MB-231 [25] = experiment: Cytotoxicity against human MDA-MB-231 cells measured after 72 hrs […]; type: functional, cell-based; details: MDA-MB-231, 72 h
CYP2C19 = CYP2C19 (Homo sapiens, UniProt P33261); experiment: Inhibition of CYP2C19 in human liver microsomes using omeprazole as substrate at 10 uM; type: ADME; details: probe omeprazole
CYP2C19, sequence (P33261 whole entry): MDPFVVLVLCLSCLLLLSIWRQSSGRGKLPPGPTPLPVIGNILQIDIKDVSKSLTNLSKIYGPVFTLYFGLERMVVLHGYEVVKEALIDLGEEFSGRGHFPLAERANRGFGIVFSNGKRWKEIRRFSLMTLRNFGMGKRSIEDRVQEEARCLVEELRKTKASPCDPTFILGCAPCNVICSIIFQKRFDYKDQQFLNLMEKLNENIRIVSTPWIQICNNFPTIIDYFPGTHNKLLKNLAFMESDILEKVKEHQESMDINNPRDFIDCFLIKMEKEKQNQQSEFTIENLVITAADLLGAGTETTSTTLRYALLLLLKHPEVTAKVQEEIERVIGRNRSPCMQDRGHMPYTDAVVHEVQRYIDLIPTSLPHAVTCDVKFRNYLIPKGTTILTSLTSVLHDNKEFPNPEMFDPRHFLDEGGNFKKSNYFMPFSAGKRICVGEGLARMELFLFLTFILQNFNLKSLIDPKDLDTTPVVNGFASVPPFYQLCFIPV

[26] = Induction of apoptosis in human A375/TxR cells assessed as apoptotic cells at 5 nM measured for 24 hrs by annexin VFITC /PI staining based analysis (reference value: […]); type: functional
[27] = Metabolic stability in human liver microsomes assessed as half life in presence of NADPH regenerating system by UPLC-MS analysis; type: ADME, Microsome; details: microsomes
CYP3A [28] = experiment: Inhibition of CYP3A in human liver microsomes using midazolam as substrate at 10 uM; type: ADME; details: probe midazolam

- inhibition at 10 µM (CYP2D6): 11.9%
- inhibition at 10 µM (CYP2B6): 12%
- CLint scaled [6]: 42.3 mL/min/kg
- AUClast [7]: 4872.07 h/ng/mL
- inhibition at 10 µM (CYP3A [8]): 51.8%
- Vd/F [9]: 12.3 L/kg
- half-life [11]: 263 min
- IC50 (MDA-MB-231 [12]): 2.2 nM
- Cmax [14]: 6210 ng/mL
- CLint scaled [20]: 4.6 mL/min/kg
- inhibition (Sus scrofa): Active
- inhibition at 10 µM (CYP2C9): 54.7%
- Tmax [23]: 10.2 min
- inhibition at 10 µM (CYP2C19): 49%
- t1/2 [27]: 29.4 min
- inhibition at 10 µM (CYP3A [28]): 34.7%
Structure (SMILES): COc1cc(C(=O)c2nc(-c3ccc(C)c(O)c3)ccc2F)cc(OC)c1OC
- IC50 (M14 [1]): 2.8 nM
- Activity [2]: Non-Toxic
- Activity (Salmonella typhimurium [3]): Non-Toxic
- Activity (A375/TxR [4]): Active
- Activity [5]: 62%
- Activity [10]: Non-Toxic
- Activity [13]: Non-Toxic
- IC50 [15]: 5.3 nM
- Activity [16]: 44.4%
- Activity (A375/TxR [17]): Dose-Dependent Effect
- IC50 (RPMI-7951): 2.4 nM
- Activity [18]: 57.6%
- Activity [19]: 72.9%
- Activity (Salmonella typhimurium [21]): Non-Toxic
- IC50 (M14 [22]): 1.9 nM
- Activity [24]: 95%
- IC50 (MDA-MB-231 [25]): 5.8 nM
- Activity [26]: 45.4%

— ChEMBL document CHEMBL5029155, “Design, Synthesis, and Biological Evaluation of Stable Colchicine-Binding Site Tubulin Inhibitors 6-Aryl-2-benzoyl-pyridines as Potential Anticancer Agents” (J Med Chem, 2021)
